Reference: PubChem BioAssay (NCI)
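Cells were grown in 96-well plates and exposed to each compound for 48 hours at five concentrations; endpoints were interpolated linearly between bracketing concentrations, or set to the highest concentration if not reached. At the TGI there is no net growth.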

Columns and labels:
Assay in all cases: growth of human tumour cells (NCI), 48 h
UACC-257 melanoma = test system: UACC-257 melanoma
NCI-H23 lung = test system: NCI-H23 lung
NCI-H460 lung = test system: NCI-H460 lung
TK-10 renal = test system: TK-10 renal
MDA-MB-435 = test system: MDA-MB-435
HCT-15 colon = test system: HCT-15 colon

Compound | TGI (UACC-257 melanoma) [µM] | TGI (NCI-H23 lung) [µM] | TGI (NCI-H460 lung) [µM] | TGI (TK-10 renal) [µM] | TGI (MDA-MB-435) [µM] | TGI (HCT-15 colon) [µM]
O=c1[nH]c2ccc([N+](=O)[O-])cc2nc1/C=C(\O)c1ccccc1 | > 100 | 73.3 | 16.5 | 14.8 | > 100 | > 100
O=C1CC(c2ccccc2)S(=O)c2ccccc2N1 (configuration not stated) | > 100 | > 100 | > 100 | > 100 | > 100 | > 100
Cc1ccc(/C=C2\N=C(N3CCCC(CO)C3)NC2=O)cc1 (configuration not stated) | > 100 | > 100 | – | > 100 | > 100 | > 100
CCNC(=S)N/N=C(\C)c1cccc(C)n1 | > 100 | > 100 | 26.4 | > 100 | > 100 | > 100
CC1(C)CC(=O)C2=C(C1)OC1(CC2c2ccc(Cl)cc2)CC(c2ccc(Cl)cc2)C2=C(CC(C)(C)CC2=O)O1 (configuration not stated) | > 61.7 | 34.9 | > 65.1 | > 83.8 | 33.7 | > 100
COCCN1C(=O)C2c3[nH]c4ccccc4c3C3CCC(C(C)(C)C)CC3C2C1=O (configuration not stated) | 31.8 | 57.3 | 28 | > 10 | 36.9 | 36.3
O=C(O)c1ccc(N/C(=C(/C(Cl)=C(Cl)Cl)[N+](=O)[O-])n2nnc3ccccc32)cc1 | > 100 | > 100 | > 100 | – | > 100 | > 100
COc1cc2c3c(cc(Cl)nc3c1OC)C(O)(CC(=O)c1ccccc1)C(=O)N2 (configuration not stated) | 21.4 | 36.9 | 43.1 | 32.1 | 3.53 | 50.9
Cc1ccc(S[C@@H](C)[C@@](O)(C(N)=O)c2ccccc2)cc1 | > 100 | > 100 | > 100 | > 100 | > 100 | > 100
CN1CCN([C@H]2C[C@H]3[C@@H]4CC=C5C[C@@H](O)CC[C@]5(C)[C@H]4CC[C@]3(C)[C@H]2O)CC1 | > 69.3 | > 100 | > 59.2 | > 100 | 31 | > 59.2
COC(=O)C(NC(=O)OC(C)(C)C)P(=O)(OC)OC (configuration not stated) | > 100 | > 100 | – | > 100 | > 100 | > 100
CCn1c2ccccc2c2cc(Nc3cc(C)[nH]c(=O)n3)ccc21 | > 100 | > 100 | > 100 | > 100 | > 100 | > 100
C(#Cc1ccccc1)SC1=C(c2ccccc2)S/C(=C(\SC#Cc2ccccc2)c2ccccc2)S1 | > 100 | > 100 | > 100 | > 100 | > 100 | > 100
CC1C2(C)OCC(C#N)(C(=N)O2)C1(C#N)C#N (configuration not stated) | 71.2 | 86.9 | 42.2 | > 100 | > 100 | 26.3
COC(=O)c1cc(/C=C\c2cc(OC)ccc2OC)ccc1OC | 96.5 | > 100 | > 100 | > 100 | 61.4 | > 100
Cc1ccc(S(=NS(=O)(=O)c2ccc(C)cc2)c2ccc(C)cc2)cc1 | > 100 | > 100 | > 100 | > 100 | > 100 | > 100
CCOC(=O)C(C(=O)COC(C)(C)C)[C@@H]1C=C[C@H](OC(C)=O)C1 (some centres not stated) | > 100 | > 100 | > 100 | – | > 100 | > 100
CC(C)c1ccc(/C=C2\CSCC3=C2N=C2SCC(=O)N2C3c2ccc(C(C)C)cc2)cc1 (configuration not stated) | > 100 | > 100 | > 100 | > 100 | > 100 | > 100
O=C(Cc1ccccc1)NN1C(=O)/C(=C\c2ccccc2O)SC1=Nc1ccccc1 | > 100 | > 100 | > 100 | > 100 | > 100 | > 100
COc1ccc2c(c1)CCC/C2=N\NS(=O)(=O)c1c(C)cc(C)cc1C | > 100 | 72.4 | 95.3 | > 100 | > 100 | 95.3
CSCCCNC(=O)[C@H](CSC)NC(=O)c1csc(CCNC(=O)[C@@H](NSc2ccccc2[N+](=O)[O-])C(C)O)n1 (some centres not stated) | > 100 | > 100 | > 100 | > 100 | > 100 | > 100
C=CC[C@H](N=C(SC)SC)C(=O)N1C(=O)N(C)[C@@H](C)[C@H]1c1ccccc1 | > 100 | > 100 | > 100 | > 100 | > 100 | > 100
CCOC(=O)CCC(NC(=O)c1ccc(Nc2nc3ccccc3nc2C(=O)OCC)cc1)C(=O)OCC (configuration not stated) | > 100 | 17.8 | > 100 | 6.43 | > 100 | > 100
Cn1cc(NC(=O)Nc2cc(C(=O)Nc3cc(C(=O)Nc4cc(S(=O)(=O)O)c5cc(S(=O)(=O)O)cc(S(=O)(=O)O)c5c4)n(C)c3)n(C)c2)cc1C(=O)Nc1cc(C(=O)Nc2cc(S(=O)(=O)O)c3cc(S(=O)(=O)O)cc(S(=O)(=O)O)c3c2)n(C)c1 | > 100 | > 100 | > 100 | > 100 | > 100 | > 100
O=S(=O)(O)c1ccc2c(N=Nc3ccc(Sc4ccc(N=Nc5c(O)ccc6cc(S(=O)(=O)O)ccc56)cc4)cc3)c(O)ccc2c1 | > 100 | > 100 | > 100 | > 100 | > 100 | > 100
CC(=O)c1sc2[n+](c1C)C(=O)/C(=C\c1ccccc1Cl)S2 | 42.3 | 38.5 | 30.2 | 57.3 | 28.9 | 27.1
CC(NC(=O)C(Cc1ccc(OC(=O)c2ccccc2)cc1)NC(=O)OC(C)(C)C)C(=O)NCC(=O)NC(Cc1ccccc1)C(=O)NN (configuration not stated) | – | > 100 | > 100 | > 100 | > 100 | > 100
